Where “and” joins values, the source holds several entries; their conditions need not be identical. Identical values can stand only once.
Columns and labels:
[1] = tested on: NADH cytochrome C reductase; settings: certain brain areas; causing Parkinsonian-like symptoms; cited from earlier work
[2] = tested on: NADH cytochrome C reductase; assay: NADH cytochrome C reductase assay of whole blood, competitive cyclists before and after oral NADH; format: in vivo, human
Experimental: (§1) Enzyme Preparation A 1-mL portion of a whole blood sample obtained from a subject by venipuncture is preserved by addition of a suitable preserving agent such as that provided by a citrate solution. To a 100-μL sample of this citrate blood is added 900 μL of phosphate balanced salt solution (PBS) at pH =7.8. The resulting 1-mL portion of buffer-diluted citrate blood is sonified with an apparatus such as that available from BRANSON at a duty cycle of 40%, output position 3. Sonification is repeated a total of ten times for 10 seconds each. An additional 1-mL volume of PBS is added to the sonified solution. The PBS-diluted solution represents the enzyme preparation utilized for further assay.
(§2) Substrate preparation A 10-mg sample of cytochrome C, obtainable from conventional sources such as Sigma Chemical, St. Louis is dissolved in 9.6 mL of distilled water. To this is added add 200 μL of 0.1 M NaN3 (sodium azide) and 200 μL of PBS (pH 7.8).
(§3) Performance of the enzyme assay A 900-μL volume of cytochrome C solution (reaction substrate) is pipetted into a 1-mL (PMMA) cuvette. The sample is mixed and allowed to incubate for 15 minutes at 37°. A 100-μL volume of enzyme preparation is added to the sample cuvette and mixed thoroughly. The absorption of reduced cytochrome C at 550 nm is measured exactly 60 seconds after addition of the enzyme preparation to the cuvette. The absorption of cytochrome C at 550 nm is again measured after 5 minutes of incubation at 37° C. after the first measurement. […]
(§4) Determination of enzymatic activity The specific activity of the enzyme species is expressed as nanomoles (nmol) of cytochrome C reduced per μL blood per 5 minutes. For quantitative analyses, a calibration curve with 0, 30, 50, 100, 130 nmol reduced cytochrome C concentrations is prepared. For calculation of the enzymatic activity expressed per blood cell, the number of red blood cells, white blood cells and IS platelets are determined. The cell counts of these cells can be determined from the undiluted citrate blood according to standard procedures. […]

[3] = tested on: NADH cytochrome C reductase; assay: NADH cytochrome C reductase assay of whole blood, soccer players before and after oral NADH; format: in vivo, human; design: key to Enzyme Activity after NADH intake: nmol cytochrome C reduced per µL blood per 5 min
Experimental: as §1, §2, §3, §4

[4] = tested on: NADH cytochrome C reductase; assay: NADH cytochrome C reductase assay, rats before and after oral NADH; format: in vivo; design: Enzyme Activity after NADH intake: unit not given here
Experimental: as §1, §2, §3
Determination of enzymatic activity The specific activity of the enzyme species is expressed as nanomoles (nmol) of cytochrome C reduced per μL blood per 5 minutes. For quantitative analyses, a calibration curve with 0, 30, 50, 100, 130 nmol reduced cytochrome C concentrations is prepared. For calculation of the enzymatic activity expressed per blood cell, the number of red blood cells, white blood cells and IS platelets are determined. The cell counts of these cells can be determined from the undiluted citrate blood according to standard procedures.

[5] = Performance quality: continuous attention, vigilance, cognitrone (Vienna Test system); format: in vivo, human; design: Continuous attention: DRT (mean value), after NADH / Cognitrone: DRT (mean), after NADH / Vigilance: correct reactions, after NADH / Vigilance: DRT (mean), after NADH: unit not given here
Experimental: (§5) The performance quality, reaction speed and constancy of attention also was tested in these athletes. The performance quality was assessed by the accuracy with which a task was done, i.e., generally in terms of the number of correct identifications of stimuli. Methods used for determination of performance quality were measurement of the continuous attention, vigilance, and the cognitrone program of the Vienna Test system (Dr. Schuhfried Ges.m.b.H., Austria). For examination of the physical performance, a bicycle ergometer (Oxycon-Alpha, Jager Inc., Vienna, Austria) was used. […] The volume and the intensity of the training and exercise program of the athletes was kept constant over that period.

[6] = Physical performance by spiro-ergometry (bicycle ergometer); format: in vivo, human; settings: 4 weeks
Experimental: as §5, with “period. […] Data reflecting this is presented below in Tables 2-4.” for “period.”

[7] = Lactate blood levels after maximum performance; format: in vivo, human
Experimental: as §5, with “period. […] Data reflecting this is presented below in Tables 2-4.” for “period.”

[8] = Physical performance on the treadmill or bicycle ergometer, soccer players; format: in vivo, human; settings: 5-mg tablet NADH daily, one month
Experimental: A study similar to that of Example 3 was performed with a European soccer team. […] This increased energy production was confirmed by improved physical performance on the treadmill or bicycle ergometer.

complex I = settings: metabolite of MPTP; cited from earlier work
[9] = soccer players, per subject, one 5-mg tablet NADH daily for one month
[10] = rats, per animal, one 2.5-mg tablet NADH daily for three months
[11] = 4 weeks after intake of one 5-mg tablet NADH per day, n = 17
[12] = 4 weeks of one 5-mg tablet NADH per day vs before, n = 17
[13] = after NADH, 1 tablet NADH (5 mg) per day
[14] = after 4 weeks of one 5-mg tablet NADH per day (n = 17)
[15] = after vs before 4 weeks of one 5-mg tablet NADH per day (n = 17)

Compound: CN1CC=C(c2ccccc2)CC1 [MPTP, 1-methyl-4-phenyl-1,2,3,6-tetrahydropyridine]
- effect on NADH cytochrome C reductase [1]: irreversibly inhibits and destroys

Compound: NC(=O)C1=CN([C@@H]2O[C@H](COP(=O)(O)OP(=O)(O)OC[C@H]3O[C@@H](n4cnc5c(N)ncnc54)[C@H](O)[C@@H]3O)[C@@H](O)[C@H]2O)C=CC1 [NADH, reduced form of nicotinamide adenine dinucleotide]
- % Difference in enzyme activity (after vs before NADH intake) ([2]; competitive cyclists, per subject, one 5-mg tablet NADH daily for one month): 50.00% (4×) and 57.10% and 46.70% (2×) and 76.90% and 47.10% (3×) and 64.30% and 60.00% and 61.50% and 53.30% and 58.30% and 41.20%
- Enzyme Activity after NADH intake ([2]; competitive cyclists, per subject, one 5-mg tablet NADH daily for one month, activity expressed as nmol cytochrome C reduced per μL blood per 5 minutes): 2.1 (2×) and 2.2 (3×) and 2.3 (3×) and 2.4 (4×) and 2.5 (3×) and 2.7 and 1.9
- endogenous NADH cytochrome C reductase activity ([2]; in nineteen of the twenty athletes, 5-mg tablet daily, one month): increase
- endogenous NADH cytochrome C reductase activity ([3]; fifteen soccer players, 5-mg tablet daily, one month): increase
- % Difference in enzyme activity (after vs before NADH intake) [3, 9]: 20.00% (4×) and 8.30% and −8.30% and 0.00% (2×) and 33.00% and 16.00% and 7.10% (2×) and 162% and 75% and 6.60%
- Enzyme Activity after NADH intake [3, 9]: 1.2 and 1.3 (2×) and 1.6 (5×) and 1.4 (2×) and 1.1 and 1.5 (2×) and 2.1 (2×)
- enzymatic activity ([4]; all test animals (rats), 2.5-mg tablet daily, three months): increase
- % Difference in enzyme activity (after vs before NADH intake) [4, 10]: 17.1% and 13.5% (2×) and 11.4% and 7.5% and 13.8% (2×) and 20.0% and 9.6% and 12.5%
- Enzyme Activity after NADH intake [4, 10]: 0.41 (3×) and 0.42 (2×) and 0.39 and 0.43 (2×) and 0.45 (2×)
- Cognitrone: Correct reactions, after NADH [5, 11]: 190.10
- Cognitrone: DRT (mean), after NADH [5, 11]: 2.09
- Continuous attention: DRT (mean value), after NADH [5, 11]: 0.81
- Continuous attention: Dispersion, after NADH [5, 11]: 0.17
- Continuous attention: correct reactions, after NADH [5, 11]: 118.80
- Continuous attention: missed reactions, after NADH [5, 11]: 1.24
- Vigilance: DRT (mean), after NADH [5, 11]: 0.55
- Vigilance: Dispersion, after NADH [5, 11]: 0.11
- Vigilance: correct reactions, after NADH [5, 11]: 97.88
- Vigilance: incorrect reactions, after NADH [5, 11]: 1.24
- Cognitrone: Correct reactions, % alteration per person [5, 12]: 2.98%
- Cognitrone: DRT (mean), % alteration per person [5, 12]: −16.05%
- Cognitrone: working time (min), % alteration per person [5, 12]: −14.36%
- Continuous attention: DRT (mean value), % alteration per person [5, 12]: −6.48%
- Continuous attention: Dispersion, % alteration per person [5, 12]: −11.59%
- Continuous attention: correct reactions, % alteration per person [5, 12]: 1.42%
- Continuous attention: incorrect reactions, absolute alteration per person [5, 12]: −1.12
- Continuous attention: missed reactions, absolute alteration per person [5, 12]: −1.41
- Vigilance: DRT (mean), % alteration per person [5, 12]: 7.79%
- Vigilance: Dispersion, % alteration per person [5, 12]: 4.79%
- Vigilance: correct reactions, % alteration per person [5, 12]: 0.01%
- Vigilance: incorrect reactions, absolute alteration per person [5, 12]: −0.65
- Vigilance: missed reactions, absolute alteration per person [5, 12]: 0.24
- mental performance ([5]; the nineteen athletes with increased enzyme activity, 5 mg NADH daily, 4 weeks): improved
- Hfmax, mean [6, 13]: 180.00
- Rmax, mean [6, 13]: 1.00
- VO2Max, mean [6, 13]: 4.98
- VO2Max/kg, mean [6, 13]: 71.20
- Vmax, mean [6, 13]: 163.00
- Wmax (maximum performance), mean [6, 13]: 340.00
- Wmax/kg, mean [6, 13]: 4.90
- physical performance ([6]; the nineteen athletes with increased enzyme activity, 5 mg NADH daily): improved
- Lactate Level 1 min. after maximum performance, after NADH, mean [7, 14]: 9.0
- Lactate Level 3 min. after maximum performance, after NADH, mean [7, 14]: 7.4
- Lactate Level 1 min. after maximum performance, Differences in percent, Dmax [7, 15]: 22.2%
- Lactate Level 1 min. after maximum performance, Differences in percent, Dmean [7, 15]: 10.0%
- Lactate Level 1 min. after maximum performance, Differences in percent, Dmed [7, 15]: 9.6%
- Lactate Level 1 min. after maximum performance, Differences in percent, Dmin [7, 15]: −7.3%
- Lactate Level 3 min. after maximum performance, Differences in percent, Dmax [7, 15]: 70.3%
- Lactate Level 3 min. after maximum performance, Differences in percent, Dmean [7, 15]: 17.2%
- Lactate Level 3 min. after maximum performance, Differences in percent, Dmed [7, 15]: −3.7%
- Lactate Level 3 min. after maximum performance, Differences in percent, Dmin [7, 15]: −22.5%
- physical performance on the treadmill or bicycle ergometer [8]: improved

Compound: C[n+]1ccc(-c2ccccc2)cc1 [MPP^+, 1-methyl-4-phenyl-pyridine]
- effect on complex I in the ETC (complex I): inhibits

— patent publication US6383771B1, “Enzyme-based assay for determining effects of exogenous and endogenous factors on cellular energy” (Birkmayer Pharmaceuticals, priority 1997, dated 2002)
